Results from ChEMBL document CHEMBL1148157, “An analysis of cytotoxic botanical formulations used in the traditional medicine of ancient Persia as abortifacients” (J Nat Prod, 2004).
In brackets after ≈: the same amount, converted by molar mass.

What was measured:
Assay type in all cases: functional, cell-based
P388 = experiment: Growth inhibition of mouse P388 cells
HT-29 = experiment: Growth inhibition of human HT29 cells
[1] = Growth inhibition of human CNS cancer cells; conditions: Cancer cell lines
[2] = Growth inhibition of human colon cancer cells; conditions: Cancer cell lines
[3] = Growth inhibition of human lung cancer cells; conditions: Cancer cell lines
[4] = Growth inhibition of human breast cancer cells; conditions: Cancer cell lines
[5] = Growth inhibition of human prostate cancer cells; conditions: cancer cell lines

In the case of `COc1cc([C@@H]2c3cc4c(c(O)c3C[C@H]3COC(=O)[C@@H]32)OCO4)cc(OC)c1OC` [BETA-PELTATIN A], the IC50 (P388) is reported as 2.5 ng/mL (≈ 6.03 nM) and the IC50 (HT-29) is reported as 2.5 ng/mL (≈ 6.03 nM).
For `CC(=O)OC(C)(C)/C=C/C(=O)[C@](C)(O)[C@H]1[C@H](O)C[C@@]2(C)[C@@H]3CC=C4[C@H](C[C@H](O)C(=O)C4(C)C)[C@]3(C)C(=O)C[C@]12C` [CUCURBITACIN B], the IC50 [1] was < 400 nM, the IC50 [2] was < 400 nM and the IC50 [3] was < 400 nM. The IC50 [4] was < 400 nM.
For `CC(C)(O)/C=C/C(=O)[C@](C)(O)[C@H]1[C@H](O)C[C@@]2(C)[C@@H]3CC=C4[C@@H](C[C@H](O)C(=O)C4(C)C)[C@]3(C)C(=O)C[C@]12C` [CUCURBITACIN D], the IC50 [1] was < 400 nM, the IC50 [2] was < 400 nM and the IC50 [3] was < 400 nM. The IC50 [4] was < 400 nM.
For `CC(=O)OC(C)(C)/C=C/C(=O)[C@](C)(O)[C@H]1[C@H](O)C[C@@]2(C)[C@@H]3CC=C4[C@@H](C=C(O)C(=O)C4(C)C)[C@]3(C)C(=O)C[C@]12C` [CUCURBITACIN E], the IC50 [5] was 7 nmol, the IC50 [1] was < 400 nM and the IC50 [2] was < 400 nM. For the same compound, the IC50 [3] was < 400 nM and the IC50 [4] was < 400 nM.
For `CC(C)(O)/C=C/C(=O)[C@](C)(O)[C@H]1[C@H](O)C[C@@]2(C)[C@@H]3CC=C4[C@@H](C=C(O)C(=O)C4(C)C)[C@]3(C)C(=O)C[C@]12C` [CUCURBITACIN I], the IC50 [1] was < 400 nM, the IC50 [2] was < 400 nM and the IC50 [3] was < 400 nM. For the same compound, the IC50 [4] was < 400 nM.
`COc1cc([C@@H]2c3cc4c(cc3C[C@H]3COC(=O)[C@@H]32)OCO4)cc(OC)c1OC` [DESOXYPODOPHYLLOTOXIN] gave an IC50 (P388) of 2.5 ng/mL (≈ 6.27 nM) and an IC50 (HT-29) of 2.5 ng/mL (≈ 6.27 nM).
